The target in the experiment is EGFR (Homo sapiens, UniProt P00533). Kind of experiment: EGFR kinase HTRF assay. The class given is biochemical. As to conditions: 0.5 μM ATP, read-out: IC50 (μM) - Enzyme Inhibition Assays EGFR. As for the experimental part:
To determine inhibition of KDR, FGFR, EGFR, and PDGFR activity, kinase assays were conducted using an HTRF (Homogeneous Time Resolved Fluorescence) assay. This assay is described in A. J. Kolb et. al., Drug Discovery Today, 1998, 3(7), p 333.
Kinase activity assays were performed in 96-well polypropylene plates (Falcon) with a total volume of 90 μL in each well. Each well contained 1 μM KDR substrate (Biotin-EEEEYFELVAKKKK), 1 nM activated KDR, and a test compound with one of 8 assay concentrations ranging from 100 μM to […] (1:5 serial dilution). The kinase activity assay was done in the presence of 100 mM HEPES, pH 7.4, 1 mM DTT, 0.1 mM Na2VO4, 25 mM MgCl2, 50 mM NaCl (from KDR stock solution), 1% DMSO (from compound), 0.3 mM ATP (at Km concentration) and 0.02% BSA. The reaction was incubated at 37° C. for 30 minutes. To stop the KDR reaction, 72 μL of reaction mixture was transferred into a STOP plate containing 18 μL of revelation buffer (20 mM EDTA, 50 mM HEPES, pH 7.4, 0.02% BSA, 10 nM Eu-labelled anti-pY antibody (final conc. 2 nM), and 100 nM streptavidin (final conc. 20 nM)). After mixing, 35 μL of solution was transferred into duplicate wells of a 384-well black plate (Costar), and read at 615/665 nm on a Wallac Victor 5 reader.
The EGFR kinase activity assay was performed with 1 μM substrate (Biotin-EEEEYFELV), 1.5 nM EGFR, test compounds, 100 mM HEPES, pH 7.4, 1 mM DTT, 5 mM MgCl2, 2 mM MnCl2, 1% DMSO, 0.5 μM ATP (Km for EGFR), 0.1 mM Na2VO4, and 0.02% BSA. The rest of the assay was performed in the same manner as the KDR assay.
Compound IC50 values were determined from duplicate sets of data, and calculated by using Excel and fitting data to equation Y=[(a−b)/{1+(X/c)^d]+b, where a and b are enzyme activity in the presence of no test inhibitor compound and an infinite amount of inhibitor test compound, respectively, c is the IC50 and d is the hill constant of the compound response. The IC50 value is the concentration of test compound that reduces by 50% the enzyme activity under the test conditions described.
Background: TR-FRET usually uses a lanthanide donor and a delayed reading to cut background.

Each structure is given as a SMILES string.

Sequence of EGFR (P00533 25-1210, species assumed): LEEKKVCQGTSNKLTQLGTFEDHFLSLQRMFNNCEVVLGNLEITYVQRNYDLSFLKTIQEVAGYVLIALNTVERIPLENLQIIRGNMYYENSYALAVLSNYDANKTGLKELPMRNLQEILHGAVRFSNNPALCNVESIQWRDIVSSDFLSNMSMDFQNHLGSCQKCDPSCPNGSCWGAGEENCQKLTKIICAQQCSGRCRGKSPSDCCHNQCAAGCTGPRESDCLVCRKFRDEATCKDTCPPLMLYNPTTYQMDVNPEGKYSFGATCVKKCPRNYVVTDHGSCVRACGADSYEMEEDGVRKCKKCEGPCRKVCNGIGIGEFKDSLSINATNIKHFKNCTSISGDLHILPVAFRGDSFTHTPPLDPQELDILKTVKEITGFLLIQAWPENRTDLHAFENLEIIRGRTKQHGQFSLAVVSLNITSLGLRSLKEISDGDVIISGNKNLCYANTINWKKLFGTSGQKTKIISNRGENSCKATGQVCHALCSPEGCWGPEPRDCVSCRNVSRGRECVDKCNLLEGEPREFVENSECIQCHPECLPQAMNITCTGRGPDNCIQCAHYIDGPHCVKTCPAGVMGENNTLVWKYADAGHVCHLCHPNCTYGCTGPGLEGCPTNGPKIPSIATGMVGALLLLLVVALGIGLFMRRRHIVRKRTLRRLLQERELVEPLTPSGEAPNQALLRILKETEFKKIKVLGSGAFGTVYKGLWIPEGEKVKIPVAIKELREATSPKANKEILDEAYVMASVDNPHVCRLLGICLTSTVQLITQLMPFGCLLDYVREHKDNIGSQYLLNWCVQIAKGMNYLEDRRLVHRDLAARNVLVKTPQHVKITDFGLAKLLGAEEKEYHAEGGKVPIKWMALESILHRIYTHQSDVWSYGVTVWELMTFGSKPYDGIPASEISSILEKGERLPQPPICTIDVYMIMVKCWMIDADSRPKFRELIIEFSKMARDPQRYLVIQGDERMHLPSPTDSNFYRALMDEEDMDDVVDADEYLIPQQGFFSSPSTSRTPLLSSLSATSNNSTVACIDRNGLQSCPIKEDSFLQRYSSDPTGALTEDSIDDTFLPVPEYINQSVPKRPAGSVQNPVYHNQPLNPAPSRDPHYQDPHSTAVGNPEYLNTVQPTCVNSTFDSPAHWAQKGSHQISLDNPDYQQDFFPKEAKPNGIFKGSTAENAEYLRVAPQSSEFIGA

One may read the IC50 as the concentration needed to halve the response being measured. For `COc1ccc(N2C(=O)N(c3ccccc3)c3nc(Nc4ccccc4)ncc3C2C)cc1` (racemic) [Example 1g, (±)-3-(4-Methoxy-phenyl)-4-methyl-1-phenyl-7-phenylamino-3,4-dihydro-1H-pyrimido[4,5-d]pyrimidin-2-one], the IC50 was less than 10 µM.
As for `COc1ccc(N2C(=O)N(c3ccc(OC)cc3)C(C)c3cnc(Nc4ccccc4)nc32)cc1` (racemic) [Example 4b, (±)-1,3-Bis-(4-methoxy-phenyl)-4-methyl-7-phenylamino-3,4-dihydro-1H-pyrimido[4,5-d]pyrimidin-2-one], the IC50 is less than 10 µM.
With `COc1ccc(N2C(=O)N(c3cccc(C#N)c3)c3nc(Nc4ccccc4)ncc3C2C)cc1` (racemic) [Example 5b, (±)-3-[3-(4-Methoxy-phenyl)-4-methyl-2-oxo-7-phenylamino-3,4-dihydro-2H-pyrimido[4,5-d]pyrimidin-1-yl]-benzonitrile], the IC50 is less than 10 µM.
As to `COc1ccc(N2C(=O)N(c3cccc(C(N)=O)c3)c3nc(Nc4ccccc4)ncc3C2C)cc1` (racemic) [Example 6, (±)-3-[3-(4-Methoxy-phenyl)-4-methyl-2-oxo-7-phenylamino-3,4-dihydro-2H-pyrimido[4,5-d]pyrimidin-1-yl]-benzamide], the IC50 was less than 10 µM.
The same measure for `COc1ccc(N2C(=O)N(c3ccccc3)c3nc(Nc4ccccc4)ncc3C2C)c(F)c1` (racemic) [Example 8d, (±)-3-(2-Fluoro-4-methoxy-phenyl)-4-methyl-1-phenyl-7-phenylamino-3,4-dihydro-1H-pyrimido[4,5-d]pyrimidin-2-one]: less than 10 µM; for `COc1ccc(N2C(=O)N(c3cccc(C#N)c3)c3nc(Nc4ccccc4)ncc3C2C)c(F)c1` (racemic) [Example 9b, (±)-3-[3-(2-Fluoro-4-methoxy-phenyl)-4-methyl-2-oxo-7-phenylamino-3,4-dihydro-2H-pyrimido[4,5-d]pyrimidin-1-yl]-benzonitrile]: less than 10 µM.
The same measure for `COc1ccc(N2C(=O)N(c3cccc(C(N)=O)c3)c3nc(Nc4ccccc4)ncc3C2C)c(F)c1` (racemic) [Example 10, (±)-3-[3-(2-Fluoro-4-methoxy-phenyl)-4-methyl-2-oxo-7-phenylamino-3,4-dihydro-2H-pyrimido[4,5-d]pyrimidin-1-yl]-benzamide]: less than 10 µM; for `COc1ccc(N2C(=O)N(c3ccccc3)c3nc(Nc4ccccc4)ncc3[C@@H]2C)cc1` (single isomer, unassigned) [Example 3]: less than 10 µM; for `COc1ccc(N2C(=O)N([C@H](C)CO)c3nc(Nc4ccccc4)ncc3[C@@H]2C)cc1` [Example 15b, 1-(2-Hydroxy-1-(R)-methyl-ethyl)-3-(4-methoxy-phenyl)-4-(S)-methyl-7-phenylamino-3,4-dihydro-1H-pyrimido[4,5-d]pyrimidin-2-one]: less than 10 µM.

These data come from patent publication US7112676B2, “Pyrimido compounds having antiproliferative activity” (Hoffmann-La Roche Inc., priority 2002, dated 2006).
